Like-named read-outs stand apart in the source and are kept apart here.
Tests used:
[1] = tested on: Pythium ultimum; assay: Threshold concentration test for use of the compounds against Pythium ultimum (infested soil, garden peas); format: in vivo; design: key to root evaluation (1-4): 4: white roots without fungous necrosis; 3: white roots, minor fungous necrosis; 2: brown roots, already more pronounced fungous necrosis; 1: heavy fungous necrosis, roots rotted; conditions: for root evaluation (1-4): 3 weeks; for number of sound peas: 20 grains per dish, 3 weeks at 20-24° C.
Method in brief: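 Garden pea seeds, 20 per dish, went straight into Pythium ultimum-infested soil into which 20% pulverulent formulations had been uniformly blended. Sound plants counted and roots rated 1–4 after three weeks of hothouse growth at 20–24 °C.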

[2] = tested on: Tilletia caries; assay: Seed treatment in open field tests regarding infestation by Tilletia caries (oats); format: in vivo
[3] = tested on: Fusarium avenaceum; assay: Inhibition of fungus in a nutrient solution: Fusarium avenaceum; format: cell-based; conditions: 6 days at 21-23° C.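 Also: 0 means no fungus growth and higher grades mean more surface covered.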
Method in brief: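 Grape juice/water (1:1) nutrient solution mixed with powdered test agent, then inoculated with conidia. Surface fungal growth scored on a 0–5 scale after 6 days at 21–23 °C.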

[4] = tested on: Alternaria solani; assay: Inhibition of fungus in a nutrient solution: Alternaria solani; format: cell-based; conditions: 6 days at 21-23° C.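 Also: 0 means no fungus growth and higher grades mean more surface covered.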
[5] = tested on: Fusarium nivale; assay: Treatment of rye seeds against Fusarium nivale; format: in vivo; conditions: 100 g/100 kg; about 4 weeks
Protocol: Treatment of rye seeds against Fusarium nivale
Rye seeds with a natural infestation by Fusarium nivale were seeded in earth filled pots and left for germination at about 6° C. Part of the seeds was treated before seeding with the active agents as appears from the subsequent table and part was untreated. After emergence of the seedlings the plants were illuminated with artificial light for 12 hours each day. After about 4 weeks the degree of infestation was determined in percentages. The fungicidal activity was calculated on the basis of the following formula: [formula]
The active agents were used in the form of 20% concentration compositions.

[6] = tested on: Helminthosporium gramineum; assay: Seed treatment in open field tests for infestation by Helminthosporium gramineum (barley); format: in vivo
Protocol: Seed treatment in open field tests for infestation by Helminthosporium gramineum
The active agents were used in the form of pulverulent compositions. After about 8 months in case of winter barley and after about 3 months in case of summer barley the infested plants were counted and the activity was calculated by the formula [formula]

[7] = tested on: Helminthosporium gram; conditions: about 5 weeks
Protocol: Treatment of barley seeds infested with Helminthosporium gram
After emergence, the plants were subjected to illumination for 12 hours per day. After about 5 weeks the infested plants were counted and the total number of plants for each test were also counted. The active agents tested were used as pulverulent compositions.

[8] = tested on: Penicillium digitatum; assay: Inhibition of fungus in a nutrient solution: Penicillium digitatum; format: cell-based; conditions: 6 days at 21-23° C.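 Also: 0 means no fungus growth and higher grades mean more surface covered.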
[9] = tested on: Ustilago nuda nuda; assay: Treatment of barley seeds in open field tests against Ustilago nuda nuda; format: in vivo; conditions: winter barley; 100 g/100 kg seeds; eight months
Protocol: (§1) Treatment of wheat and barley seeds in open field tests against Ustilago nuda
(§2) Winter wheat seeds which had been infested with the smut cause Ustilago nuda tritici and winter barley seeds infested with Ustilago nuda nuda were treated with the agents listed in the table below and were seeded at seeding time in open fields. As a control untreated seeds were likewise included in the seed. After eight months the affected heads were counted for each test group and their proportion was calculated in order to find the fungicidal activity by the following formula: [formula]
(§3) The active compounds were employed in the form of 20% concentration powder compositions.

[10] = tested on: Venturia inaequalis; assay: Prophylactic leaf treatment of apples in open field test against Venturia inaequalis; format: in vivo; conditions: 3 weeks
[11] = tested on: Ustilago avenae; assay: Oat seed treatment for Ustilago avenae; format: in vivo; conditions: 100 g active agent/100 kg; 10 weeks
[12] = tested on: Botrytis cinerea; assay: Inhibition of fungus in a nutrient solution: Botrytis cinerea; format: cell-based; conditions: 6 days at 21-23° C.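 Also: 0 means no fungus growth and higher grades mean more surface covered.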
[13] = tested on: Piricularia oryzae; format: in vivo; conditions: 5 days
[14] = tested on: Ustilago nuda tritici; assay: Treatment of wheat seeds in open field tests against Ustilago nuda tritici; format: in vivo; conditions: winter wheat; 100 g/100 kg seeds; eight months
Protocol: as §1, §2, §3

[15] = tested on: Fusarium avenaceum; assay: Threshold concentration test in case of Fusarium avenaceum (infested soil, garden peas); format: in vivo; conditions: for number of sound peas: 20 grains per dish, 18 days at 20-24° C.; for root evaluation (1-4): 18 days
Method in brief: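 Soil heavily infested with Fusarium avenaceum was mixed uniformly with a 20% powder formulation of active agent, then sown immediately with 20 garden pea seeds ('Wunder von Kelvedon') per dish. After 18 days in a greenhouse at 20° to 24° C., sound plants were counted and roots scored on a 1–4 scale.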

[16] = tested on: Septoria nodorum; assay: Treatment of oat seeds against Septoria nodorum; format: in vivo; conditions: 50 g active agent/100 kg seeds; 4 weeks
Protocol: Effects of the treatment of oat seeds against Septoria nodorum
They were then seeded on a moist substrate for germination. As a control untreated seeds were likewise seeded. At about 6° C. the seed was incubated in an air-conditioned chamber until after 4 weeks the proportion of diseased seeds could be determined and the activity of the fungicidal compounds was calculated on the basis of the following formula: [formula]
The active agents were applied in the form of 20% concentration pulverulent compositions.

[17] = tested on: Botrytis cinerea; assay: Prophylactic leaf treatment of tomato plants against Botrytis cinerea; format: in vivo; conditions: concentration of 0.025 of the active agent (unit not given)
[18] = summer oats, 50 g active agent/100 kg, about 4 months
[19] = summer barley, 50 g active agent/100 kg barley, about 3 months
[20] = summer barley, 100 g active agent/100 kg barley, about 3 months
[21] = winter barley, 50 g active agent/100 kg barley, about 8 months
[22] = winter barley, 75 g active agent/100 kg barley, about 8 months
[23] = winter barley, 100 g active agent/100 kg barley, about 8 months
[24] = concentration of active agent 0.005 (in gram)
[25] = concentration of active agent 0.025 (in gram)
[26] = concentration of active agent 0.02 (percentages)
[27] = concentration of active agent 0.1 (percentages)
[28] = summer barley, 25 g active agent/100 kg barley, about 3 months

| Compound | root evaluation (1-4) ([1]; 20 mg/l soil) | number of sound peas ([1]; 20 mg/l soil) | root evaluation (1-4) ([1]; 40 mg/l soil) | number of sound peas ([1]; 40 mg/l soil) | root evaluation (1-4) ([1]; 80 mg/l soil) | number of sound peas ([1]; 80 mg/l soil) | % activity [2, 18] [%] | fungus development on the surface of the nutrient solution (0-5) ([3]; 0.004%) | fungus development on the surface of the nutrient solution (0-5) ([4]; 0.002%) | fungus development on the surface of the nutrient solution (0-5) ([4]; 0.004%) | % activity [5] [%] | % activity [6, 19] [%] | % activity [6, 20] [%] | % activity [6, 22] [%] | % activity ([7]; 20 g active agent per 100 kg) [%] | % activity ([7]; 50 g active agent per 100 kg) [%] | % activity [10, 24] [%] | % activity [10, 25] [%] | % activity [11] [%] | % activity [13, 27] [%] | other results |
| --- | --- | --- | --- | --- | --- | --- | --- | --- | --- | --- | --- | --- | --- | --- | --- | --- | --- | --- | --- | --- | --- |
| CC(C)CS(=O)(=O)c1nnc(C(N)=O)s1 [5-isobutylsulfonyl-1,3,4-thiadiazole-2-carboxamide] | 1 | 15 | 4 | 18 | 4 | 18 | 99 | 0 | 0 | 0 | 99.2 | 99.5 | 100 | 100 | 60 | 87 | 87 | 95 | 87 | 90 | % activity [6, 21]: 100%; % activity [6, 23]: 100%; fungus development on the surface of the nutrient solution (0-5) ([8]; 0.002%): 1; fungus development on the surface of the nutrient solution (0-5) ([8]; 0.004%): 0; % activity [9]: 79%; fungus development on the surface of the nutrient solution (0-5) ([12]; 0.002%): 2 (5 to 10% of the surface covered by the fungus turf); fungus development on the surface of the nutrient solution (0-5) ([12]; 0.004%): 1; % activity [13, 26]: 65%; % activity [14]: 75% |
| CC(C)S(=O)(=O)c1nnc(C#N)s1 [5-isopropylsulfonyl-1,3,4-thiadiazole-2-carbonitrile] | 2 | 18 | 4 | 20 | 4 | 19 | – | 0 | 0 | 0 | – | 99.8 | 100 | 99 | 86 | 97 | 97 | 100 | 97 | 94 | % activity ([2]; winter oats, 100 g active agent/100 kg, about 9 months): 100%; fungus development on the surface of the nutrient solution (0-5) ([3]; 0.002%): 0; % activity [6, 28]: 100%; % activity [6, 23]: 100%; fungus development on the surface of the nutrient solution (0-5) ([8]; 0.002%): 0; fungus development on the surface of the nutrient solution (0-5) ([8]; 0.004%): 0; number of sound peas ([15]; 25 mg/l soil): 20; root evaluation (1-4) ([15]; 25 mg/l soil): 4; number of sound peas ([15]; 50 mg/l soil): 20; root evaluation (1-4) ([15]; 50 mg/l soil): 4; number of sound peas ([15]; 100 mg/l soil): 19; root evaluation (1-4) ([15]; 100 mg/l soil): 4; % activity [9]: 93%; fungus development on the surface of the nutrient solution (0-5) ([12]; 0.002%): 1; fungus development on the surface of the nutrient solution (0-5) ([12]; 0.004%): 0; % activity [14]: 70% |
| CNC(=O)c1nnc(S(C)(=O)=O)s1 [5-methylsulfonyl-1,3,4-thiadiazole-2-carboxylic acid methylamide] | 4 | 20 | 4 | 18 | 4 | 18 | 100 | – | – | – | 100 | 100 | 100 | 100 | 99 | 100 | 90 | 92 | 90 | 91 | % activity [16]: 93%; % activity [6, 28]: 93%; % activity ([6]; winter barley, 25 g active agent/100 kg barley, about 8 months): 99.5%; % activity [6, 21]: 99.5%; % activity [13, 26]: 65%; % activity [17]: 78% |

Source: patent publication US4281121A, “1,3,4-Thiadiazole-2-carboxylic acid derivatives, process for making the same and fungicidal and nematocidal compositions containing same” (Schering Aktiengesellschaft, priority 1978, dated 1981)
